# According to patent US20110091638A1, “METHOD OF ANIMAL SLAUGHTER” (priority 2007, published 2011):
# Columns and labels:
# [1] = test system: Mackerel (Scomber scombrus); experiment: Mackerel transferred into CO saturated seawater
# Procedure: (§1) Mackerel (Scomber scombrus) of about 700 g bodyweight were transferred from seawater into CO saturated seawater at about 16° C. in a 1 m×1 m plastic tank. CO saturation was achieved by pre-flushing the seawater (250 L) with 99.3% pure carbon monoxide (from Yara AS, Norway) for 5 minutes at 2.0 bar through two Wedge-lock diffusers (from Sterner Aqua, Norway). The CO content was monitored and never exceeded 50 ppm in the vicinity of the tank.
# [2] = test system: Atlantic salmon (Salmo salar); experiment: Atlantic salmon transferred into CO saturated seawater
# Procedure: as §1
# Atlantic salmon (Salmo salar) of 0.7 to 1.5 kg bodyweight were transferred from seawater into CO saturated seawater (as in Example 1).
# [3] = test system: Atlantic halibut (Hippoglossus hippoglossus); experiment: Atlantic halibut transferred into CO saturated seawater
# Procedure: as §1
# Atlantic halibut (Hippoglossus hippoglossus) of about 1.5 kg bodyweight were transferred into CO saturated seawater (as in Example 1).
compound,measurement,setting,value
[C-]#[O+] [carbon monoxide],time until fish showed signs of fatigue,"[1]; about 16° C., mackerel about 700 g",about 5 minutes
same,further exposure time until fish died and turned belly up,[1]; continued exposure after signs of fatigue,5 min
same,further exposure time until fish died and turned belly up,[2]; continued exposure after anaesthesia,more than one
same,"time until fish were relaxed, sedated and finally anesthetised",[2]; salmon 0.7 to 1.5 kg,about 5 minutes
same,signs of stress or discomfort during exposure,[2]; until anaesthesia,no signs of stress or discomfort
same,further exposure time until fish died,[3]; continued exposure after loss of flight reaction,two
same,time until flight reaction was not pronounced,[3]; halibut about 1.5 kg,about 2 minutes
